biological target: T1, human RXFP1 (Homo sapiens, UniProt Q9HBX9); test: hRXFP1 HEK293 cAMP assay (HTRF); format: cell-based; conditions: HEK293 cells stably expressing human RXFP1; phenylcyclobutane examples
T1 construct: expressed in transfected cells
T1 sequence (Q9HBX9 1-757): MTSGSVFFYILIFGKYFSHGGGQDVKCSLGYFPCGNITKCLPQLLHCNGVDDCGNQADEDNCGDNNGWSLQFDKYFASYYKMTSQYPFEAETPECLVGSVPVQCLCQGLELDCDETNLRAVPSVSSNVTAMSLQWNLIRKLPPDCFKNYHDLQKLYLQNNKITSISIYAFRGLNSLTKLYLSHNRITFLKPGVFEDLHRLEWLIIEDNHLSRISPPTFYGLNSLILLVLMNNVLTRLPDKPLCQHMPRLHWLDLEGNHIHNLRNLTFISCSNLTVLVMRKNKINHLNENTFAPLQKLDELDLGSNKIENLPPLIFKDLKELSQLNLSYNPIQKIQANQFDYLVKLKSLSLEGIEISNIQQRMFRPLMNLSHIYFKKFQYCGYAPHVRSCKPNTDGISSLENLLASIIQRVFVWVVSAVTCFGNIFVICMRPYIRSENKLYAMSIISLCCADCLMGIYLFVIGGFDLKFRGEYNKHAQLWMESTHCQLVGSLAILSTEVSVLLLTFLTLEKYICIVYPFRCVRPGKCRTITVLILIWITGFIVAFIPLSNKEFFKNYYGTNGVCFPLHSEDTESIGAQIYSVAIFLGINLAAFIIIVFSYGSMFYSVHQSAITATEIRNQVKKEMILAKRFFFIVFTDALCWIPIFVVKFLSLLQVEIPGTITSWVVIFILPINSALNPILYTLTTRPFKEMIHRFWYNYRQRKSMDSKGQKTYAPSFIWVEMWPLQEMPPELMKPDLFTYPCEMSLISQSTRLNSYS
Procedure: RXFP1 Cyclic Adenosine Monophosphate (cAMP) Assays. Human embryonic kidney cells 293 (HEK293) cells and HEK293 cells stably expressing human RXFP1, were cultured in MEM medium supplemented with 10% qualified FBS, and 300 μg/ml hygromycin (Life Technologies). Cells were dissociated and suspended in assay buffer. The assay buffer was HBSS buffer (with calcium and magnesium) containing 20 mM HEPES, 0.05% BSA, and 0.5 mM IBMX. Cells (3000 cells per well, except 1500 cell per well for HEK293 cells stably expressing human RXFP1) were added to 384-well Proxiplates (Perkin-Elmer). Cells were immediately treated with test compounds in DMSO (2% final) at final concentrations in the range of 0.010 nM to 50 μM. Cells were incubated for 30 min at room temperature. The level of intracellular cAMP was determined using the HTRF HiRange cAMP assay reagent kit (Cisbio) according to manufacturer's instructions. Solutions of cryptate conjugated anti-cAMP and d2 fluorophore-labelled cAMP were made in a supplied lysis buffer separately. Upon completion of the reaction, the cells were lysed with equal volume of the d2-cAMP solution and anti-cAMP solution. After a 1 h room temperature incubation, time-resolved fluorescence intensity was measured using the Envision (Perkin-Elmer) at 400 nm excitation and dual emission at 590 nm and 665 nm. A calibration curve was constructed with an external cAMP standard at concentrations ranging from 2.7 μM to 0.1 μM by plotting the fluorescent intensity ratio from 665 nm emission to the intensity from the 590 nm emission against cAMP concentrations. The potency and activity of a compound to […] cAMP production was then determined by fitting to a 4-parametric logistic equation from a plot of cAMP level versus compound concentrations.
The examples disclosed below were tested in the human RXFP1 (hRXFP1) HEK293 cAMP assay described above and found to have agonist activity. Tables 1-3, lists EC50 values in the hRXFP1 HEK293 cAMP assay measured for the examples.

| EC50 [nM] | Compound |
| --- | --- |
| 8 | COc1ccc(-c2cc(C(NC(=O)C3CCOCC3)C(=O)O)ccc2F)cc1C(=O)Nc1cc2c(cc1C(=O)Nc1ccc(F)c(C(F)(F)F)c1)CC2 (stereo not drawn) [Example 22, 2-(6-fluoro-3′-((4-((4-fluoro-3-(trifluoromethyl)phenyl)carbamoyl)bicyclo[4.2.0]octa-1,3,5-trien-3-yl)carbamoyl)-4′-methoxy-[1,1′-biphenyl]-3-yl)-2-(tetrahydro-2H-pyran-4-carboxamido)acetic acid] |

same assay, conditions: HEK293 cells stably expressing human RXFP1; phenylcyclohexyl (tetraline) examples

| Compound | EC50 [nM] |
| --- | --- |
| COc1ccc(C2=NOC3CC(CO)CC23)cc1C(=O)Nc1cc2c(cc1C(=O)Nc1ccc(F)c(C(F)(F)F)c1)CCCC2 (single isomer, unassigned) [Example 13, N-(4-fluoro-3-(trifluoromethyl)phenyl)-3-(5-(5-(hydroxymethyl)-3a,5,6,6a-tetrahydro-4H-cyclopenta[d]-isoxazol-3-yl)-2-methoxybenzamido)-5,6,7,8-tetrahydronaphthalene-2-carboxamide] | 19 |
| COc1ccc(-c2noc(CCO)c2CCO)cc1C(=O)Nc1cc2c(cc1C(=O)Nc1ccc(F)c(C(F)(F)F)c1)CCCC2 [Example 16, 3-(5-(4,5-bis(2-hydroxyethyl)isoxazol-3-yl)-2-methoxybenzamido)-N-(4-fluoro-3-(trifluoromethyl)phenyl)-5,6,7,8-tetrahydronaphthalene-2-carboxamide] | 5000 |

Second part, the compound after the results:

| EC50 [nM] | Compound |
| --- | --- |
| 62 | COc1ccc(-c2cc([C@H](OC(=O)NC3CC(F)(F)C3)C(F)(F)F)ccc2F)cc1C(=O)Nc1cc2c(cc1C(=O)Nc1ccc(F)c(C(F)(F)F)c1)CCCC2 [Example 7, (S)-2,2,2-trifluoro-1-(6-fluoro-3′-((3-((4-fluoro-3-(trifluoro-methyl)phenyl)carbamoyl)-5,6,7,8-tetra-hydronaphthalen-2-yl)carbamoyl)-4′-methoxy-[1,1′-biphenyl]-3-yl)ethyl (3,3-difluorocyclo-butyl)carbamate] |
| 22 | COc1ccc(-c2cc(CC(=O)NCC3CCC3)ccc2F)cc1C(=O)Nc1cc2c(cc1C(=O)Nc1ccc(F)c(C(F)(F)F)c1)CCCC2 [Example 9, 3-(5′-(2-((cyclobutylmethyl)amino)-2-oxoethyl)-2′-fluoro-4-methoxy-[1,1′-biphenyl]-3-carboxamido)-N-(4-fluoro-3-(trifluoromethyl)phenyl)-5,6,7,8-tetrahydronaphthalene-2-carboxamide] |

same assay, conditions: HEK293 cells stably expressing human RXFP1; phenylcyclopentyl examples

| EC50 [nM] | Compound |
| --- | --- |
| 11 | COc1ccc(-c2cc(C(NC(=O)C3CCOCC3)C(=O)O)ccc2F)cc1C(=O)Nc1cc2c(cc1C(=O)Nc1ccc(F)c(C(F)(F)F)c1)CCC2 (stereo not drawn) [Example 25, 2-(6-fluoro-3′-((6-((4-fluoro-3-(trifluoromethyl)phenyl)carbamoyl)-2,3-dihydro-1H-inden-5-yl)carbamoyl)-4′-methoxy-[1,1′-biphenyl]-3-yl)-2-(tetrahydro-2H-pyran-4-carboxamido)acetic acid] |
| 160 | COc1ccc(C2=NOC3CC(CO)CC23)cc1C(=O)Nc1cc2c(cc1C(=O)Nc1ccc(F)c(C(F)(F)F)c1)CCC2=O (single isomer, unassigned) [Example 28, N-(4-fluoro-3-(trifluoromethyl)phenyl)-6-(5-(5-(hydroxymethyl)-3a,5,6,6a-tetrahydro-4H-cyclopenta[d]isoxazol-3-yl)-2-methoxybenzamido)-1-oxo-2,3-dihydro-1H-indene-5-carboxamide] |
| 2700 | COc1ccc(-c2cc(C(=O)O)ccc2F)cc1C(=O)Nc1cc2c(cc1C(=O)Nc1ccc(F)c(C(F)(F)F)c1)CCC2O (racemic) [Example 29, 6-fluoro-3′-((6-((4-fluoro-3-(trifluoromethyl)phenyl)carbamoyl)-3-hydroxy-2,3-dihydro-1H-inden-5-yl)carbamoyl)-4′-methoxy-[1,1′-biphenyl]-3-carboxylic acid] |
| 34 | COc1ccc(C2=NOC3CC(CO)CC23)cc1C(=O)Nc1cc2c(cc1C(=O)Nc1ccc(F)c(C(F)(F)F)c1)CCC2=O (single isomer, unassigned) [Example 27, N-(4-fluoro-3-(trifluoromethyl)phenyl)-6-(5-(5-(hydroxymethyl)-3a,5,6,6a-tetrahydro-4H-cyclopenta[d]isoxazol-3-yl)-2-methoxybenzamido)-1-oxo-2,3-dihydro-1H-indene-5-carboxamide] |
